The source of these data is US10028955B2, “FGFR inhibitor for use in the treatment of hypophosphatemic disorders” (Novartis AG, priority 2012, dated 2018).

“Also recorded” adds a separate entry of the source.

What all share (type): in vivo, mouse
The subject of test [1] is Dmp1-null mice. The test is described as follows: Serum calcium and phosphate after single oral dose in Dmp1-null mice. The note with it: single oral dose 50 mg/kg, 24 h post-administration. From the text:
FGFR inhibitor treatment induces 1,25(OH)2D3 biosynthesis and alleviates hypocalcemia and hypophosphatemia in Hyp mice. Wild-type C57BL/6 and Hyp (B6.Cg-PhexHyp/J) mice were obtained from The Jackson Laboratory. Dmp1-null mice were generated by Feng et al. (J. Dent. Res. 2003; 82:776-780.). All mice were kept in cages under standard laboratory conditions. Mice were fed on a standard rodent diet with water ad libitum.
For analysis of calcium and phosphate levels mice received a single oral dose of the FGFR inhibitor BGJ398 (50 mg/kg) or vehicle and were studied 24 h post-administration. Phosphate and calcium levels were determined from serum. As for Hyp mice, pharmacological FGFR inhibition led to increased serum calcium and phosphate levels in Dmp1-null mice (FIGS. 2C and D, respectively). Data in FIG. 2 are shown as average with SEM (n≥6). Data were compared by unpaired Student's t test; * p<0.05; ** p<0.01; *** p<0.001; n. s.: not significant.

In test [2] the test system is FGF23. Nature of the test: FGF23 bone mRNA and serum levels after single oral dose in wild-type and Hyp mice. The note with it: single oral dose 50 mg/kg, 7 h post-dosing. On the procedure:
Kidneys were sampled, total RNA was isolated. For RNA isolation from mouse tibial and femoral bones, epiphyses were cut off and bone marrow was removed by centrifugation at 4° C. Tissue was homogenized using a Precellyis 24 bead homogenizer and RNA was extracted with TRIzol reagent. RNA was purified subsequently by chloroform extraction, isopropanol precipitation and RNeasy Mini kit. For kidney RNA, approximately 60 mg of tissue was homogenized in 1.5 ml RTL buffer (Qiagen) with a rotor-stator homogenizer and RNA was purified with the RNeasy Mini kit. Random hexamer primed cDNA was synthesized with 0.5-2 μg RNA and MultiScribe MuLV reverse transcriptase.
Gene expression was analyzed by quantitative real-time PCR (qPCR). TaqMan Probe-Based Gene Expression assays were used for expression analysis of mouse Cyp27b1 (Mm01165919), Cyp24a1 (Mm00487244) and Gapdh (4352339E). Sequences of primers and FAM/TAMRA-labeled probes (Microsynth) for the detection of mouse Fgf23 were 5′-[…] (forward), 5′-[…] (reverse) and 5′-[…] (probe). Quantitative real-time PCR was performed in an iQ5 Real-Time PCR Detection System using a qPCR core kit for probe assay and an equivalent of 40 or 80 ng RNA of each sample. The data were normalized to Gapdh expression.
Serum was separated from whole blood using clot activator centrifugation tubes. 100 μl of serum were used for determination of phosphate and calcium levels using the VetScan diagnostic profiling system. Serum concentrations of 1,25(OH)2D3 were determined using a radio receptor assay kit. FGF23 serum levels were analyzed by an ELISA detecting intact FGF23 (Kainos).
Besides the alleviation of the mineral ion deficiency in the two mouse models for FGF23-related hypophosphatemic rickets, we also noticed a repressive effect of FGFR inhibitor treatment on FGF23 levels in BGJ398-treated Hyp mice. Mice received a single oral dose of the FGFR inhibitor BGJ398 (50 mg/kg) or vehicle and were studied 7 h post-administration. FGF23 bone mRNA (FIG. 3A) and serum (FIG. 3B) levels in wild-type and Hyp mice treated with BGJ398 were determined. […]

Test [3] deals with Hyp mice. Nature of the test: Long-term (8 weeks, 3 qw) treatment of Hyp mice: bone radiography, micro-CT, histology/histomorphometry. Particulars: 50 mg/kg 3 qw for 56 days. On the procedure:
Radiographs of femur and tibia were taken ex vivo using a high-resolution radiography system (Faxitron MX-20). μCT measurements were performed ex vivo using a Scanco vivaCT 40 system (voxel size 6 μm; high resolution). For cancellous and cortical bone analyses a fixed threshold of 200 was used to determine the mineralized bone fraction from 50 slices. A Gaussian filter was applied to remove noise (σ=0.7; support=1).
As shown on FIG. 7 long-term FGFR inhibition enhances growth of long bones in Hyp mice. Taken together, these above results illustrate the beneficial effect of pharmacological FGFR inhibition in the context of aberrant FGF23 signaling and indicate a potential alleviation of the bone formation deficiency of Hyp mice. […] On FIG. 7.: Radiographs of femur (FIG. 7A) and tibia (FIG. 7B) from wild-type or Hyp mice treated with the FGFR inhibitor BGJ398 (50 mg/kg) or vehicle 3 qw for 56 days. Quantification of femoral (FIG. 7C) and tibial (FIG. 7D) length. Data are shown as average with SEM (n≥6). Data were compared by unpaired Student's t test; * p<0.05; ** p<0.01; *** p<0.001; n. s.: not significant.
Long-term FGFR inhibition improves cortex integrity in femoral bone of Hyp mice. To determine the effect of FGFR inhibitor treatment on bone structure in more detail, we performed microcomputed tomography (CT) analyses of the femoral cortex (sub growth plate area) from wild-type or Hyp mice treated with the FGFR inhibitor BGJ398 (50 mg/kg) or vehicle 3 qw for 56 days (FIG. 8A). Further relative cortical bone volume was quantified (FIG. 8B) and average cortex thickness determined (FIG. 8C).
Long-term treatment with BGJ398 restores growth plate organization Hyp mice. we also found an ameliorative effect of BGJ398-treatment on growth plate organization in Hyp mice in tibial histological sections (FIG. 9A). […] Mineralized tissue is indicated by white arrows, unmineralized osteoid is visualized by dark grey (indicated by black arrows). Growth plate structure is shown by light grey staining in the central part of the sections (FIG. 9B). Osteoid surface/bone surface and osteoid width (FIG. 9C) determined by histomorphometry in the tibial epiphysis of wild-type or Hyp mice treated with BGJ398 (50 mg/kg) or vehicle 3 qw for 56 days. Data are shown as average with SEM (n≥6). Data were compared by unpaired Student's t test; * p<0.05; ** p<0.01; *** p<0.001. In vehicle-treated Hyp mice the columnar organization and directional growth of chondrocytes was disturbed in contrast to the highly ordered structure in wild-type mice. In addition, mineralization was impaired in control Hyp mice, as indicated by the abundance of unmineralized osteoid.

On to `CCN1CCN(c2ccc(Nc3cc(N(C)C(=O)Nc4c(Cl)c(OC)cc(OC)c4Cl)ncn3)cc2)CC1` [BGJ398, 3-(2,6-Dichloro-3,5-dimethoxy-phenyl)-1-{6-[4-(4-ethyl-piperazin-1-yl)-phenylamino]-pyrimid-4-yl}-1-methyl-urea], for which, in test [1], the serum calcium levels result is on record as “increased” and the serum phosphate levels entry is given as “increased”. Further, the “reduction of serum FGF23 levels” value in test [2] (Hyp mice) was “approximately 50%”. The “FGF23 expression in bone (mRNA)” value in test [2] (both Hyp and wild-type mice) was “almost abolished”. Also, in test [2] (wild-type mice), the “serum FGF23 levels” value is listed as “undetectable”. In test [3], the “femoral cortex integrity (micro-CT)” value was “appeared intact”; the “mineralization in the epiphyseal bone area adjacent to the growth plate” value is given as “enhanced mineralization”; the “primary spongiosa in the metaphyseal sub-growth plate area” value is reported as “formation of primary spongiosa”; the “widening of femoral and tibial growth plate areas” value is given as “partially alleviate”. Besides, the “growth plate organization (tibial sections, Goldner staining)” value in test [3] (50 mg/kg) is “striking re-organization of the growth plate area”. Besides, in test [3] (vs vehicle Hyp), the “femur length (radiography)” value is “significant elongation” and the “tibia length (radiography)” value is listed as “significant elongation”. Moreover, in test [3] (epiphyseal, metaphyseal and cortical bone compartments), the osteoid width entry is “strong reduction”. Moreover, the “relative cortical bone volume” value in test [3] (femoral cortex, 50 mg/kg) is given as “increases from pathological values to indistinguishable with normal values; also recorded: indistinguishable from wild-type mice”. Besides, the average cortex thickness entry in test [3] (femoral cortex, vs vehicle Hyp, 50 mg/kg) is “significantly increased compared to vehicle-treated Hyp mice”. The “Osteoid surface/bone surface (OS/BS ratio)” value in test [3] (histomorphometry) is recorded as “attenuation of the increased OS/BS ratio”. For the same molecule, in test [3] (tibial sections), the “columnar stacks of chondrocytes” value is given as “re-formation” and the “height of the proliferative zone” value is “increased height”.
